From patent EP0391169A2, “Enantiomeric pure 7-(3-amino-1-pyrrolidinyl)-chinolon-and-naphthyridon carboxylic acids” (BAYER AG, priority 1989, dated 1990)
Converted amounts (≈) assume the structure as drawn. Structures can show the parent of a compound that is named as a salt.

Experiments:
Assay in all cases: MIC agar dilution test (Denley Multipoint Inoculator; Iso-Sensitest agar)
Format in all cases: cell-based
[1] = system: Serrratia marcescene 16040; settings: 37° C, ca. 20 h, read-out: MHK-Werte
Description: (§1) Die minimalen Hemmkonzentrationen (MHK) wurden per Reihenverdünnungsverfahren auf Iso-Sensitest Agar (Oxoid) bestimmt. Für jede Prüfsubstanz wurde eine Reihe von Agarplatten hergestellt, die bei jeweils doppelter Verdünnung abfallende Konzentrationen des Wirkstoffes enthielten. Die Agarplatten wurden mit einem Multipoint-Inokulator (Denley) beimpft. Zum Beimpfen wurden Übernachtkulturen der Erreger verwandt, die zuvor so verdünnt wurden, daß jeder Impfpunkt ca. 10^4 koloniebildende Partikel enthielt. Die beimpften Agarplatten wurden bei 37° C bebrütet, und das Keimwachstum wurde nach ca. 20 Stunden abgelesen. Der MHK-Wert (µg/ml) gibt die niedrigste Wirkstoffkonzentration an, bei der mit bloßem Auge kein Keimwachstum zu erkennen war.
(§2) In der nachfolgenden Tabelle sind die MHK-Werte einiger der erfindungsgemäßen Verbindungen im Vergleich zum entsprechenden Racemat aufgeführt: […]

[2] = system: Pseudomonas aerog. Walter; settings: 37° C, ca. 20 h, read-out: MHK-Werte
Description: as §1, §2

E. coli A261 = settings: Escherichia coli, 37° C, ca. 20 h, read-out: MHK-Werte
Description: as §1, §2

[3] = system: Pseudomonas aerog. Ellsworth; settings: 37° C, ca. 20 h, read-out: MHK-Werte
Description: as §1, §2

E. coli Neumann = settings: Escherichia coli, 37° C, ca. 20 h, read-out: MHK-Werte
Description: as §1, §2

Providencia stuartei = Providencia stuartei (strain number not given), 37° C, ca. 20 h, read-out: MHK-Werte
Description: as §1, §2

Proteus mir. 8175 = settings: 37° C, ca. 20 h, read-out: MHK-Werte
Description: as §1, §2

Proteus mir. 8223 = settings: 37° C, ca. 20 h, read-out: MHK-Werte
Description: as §1, §2

Klebsiella pneum. 63 = settings: 37° C, ca. 20 h, read-out: MHK-Werte
Description: as §1, §2

Enteroc. faecalis 9790 = settings: 37° C, ca. 20 h, read-out: MHK-Werte
Description: as §1, §2

Morg. morg. 932 = settings: 37° C, ca. 20 h, read-out: MHK-Werte
Description: as §1, §2

Enteroc. faecalis 27101 = settings: 37° C, ca. 20 h, read-out: MHK-Werte
Description: as §1, §2

Klebsiella pneum. 8085 = settings: 37° C, ca. 20 h, read-out: MHK-Werte
Description: as §1, §2

Proteus vulg. 1017 = settings: 37° C, ca. 20 h, read-out: MHK-Werte
Description: as §1, §2

Morg. morg. 11006 = settings: 37° C, ca. 20 h, read-out: MHK-Werte
Description: as §1, §2

E. coli 455/7 = settings: Escherichia coli, 37° C, ca. 20 h, read-out: MHK-Werte
Description: as §1, §2

[4] = system: Providencia stuartei 12052; settings: 37° C, ca. 20 h, read-out: MHK-Werte
Description: as §1, §2

Staph. aurens FK 422 = settings: 37° C, ca. 20 h, read-out: MHK-Werte
Description: as §1, §2

Staph. aurens 133 = settings: 37° C, ca. 20 h, read-out: MHK-Werte
Description: as §1, §2

Staph. aurens 1756 = settings: 37° C, ca. 20 h, read-out: MHK-Werte
Description: as §1, §2

Row | Structure (SMILES) | MIC [1] [µg/mL] | MIC [2] [µg/mL] | MIC (E. coli A261) [µg/mL] | MIC [3] [µg/mL] | MIC (E. coli Neumann) [µg/mL] | MIC (Providencia stuartei) [µg/mL] | MIC (Proteus mir. 8175) [µg/mL] | MIC (Proteus mir. 8223) [µg/mL] | MIC (Klebsiella pneum. 63) [µg/mL] | MIC (Enteroc. faecalis 9790) [µg/mL] | MIC (Morg. morg. 932) [µg/mL] | MIC (Enteroc. faecalis 27101) [µg/mL] | MIC (Klebsiella pneum. 8085) [µg/mL] | MIC (Proteus vulg. 1017) [µg/mL] | MIC (Morg. morg. 11006) [µg/mL] | MIC (E. coli 455/7) [µg/mL] | MIC [4] [µg/mL] | MIC (Staph. aurens FK 422) [µg/mL] | MIC (Staph. aurens 133) [µg/mL] | MIC (Staph. aurens 1756) [µg/mL]
1 | NC1CCN(c2c(F)cc3c(=O)c(C(=O)O)cn(C4CC4)c3c2Cl)C1 (racemic) [*), 7-(3-Amino-1-pyrrolidinyl)-8-chlor-1-cyclopropyl-6-fluor-1,4-dihydro-4-oxo-3-chinolincarbonsäure, reference compound] | 0.25 (≈ 0.683 µM) | 0.06 (≈ 0.164 µM) | 0.0019 (≈ 0.00519 µM) | 0.03 (≈ 0.082 µM) | 0.0019 (≈ 0.00519 µM) | 0.0039 (≈ 0.0107 µM) | 0.0078 (≈ 0.0213 µM) | 0.25 (≈ 0.683 µM) | 0.0039 (≈ 0.0107 µM) | 0.03 (≈ 0.082 µM) | 0.0019 (≈ 0.00519 µM) | 0.03 (≈ 0.082 µM) | 0.0039 (≈ 0.0107 µM) | 0.0019 (≈ 0.00519 µM) | 0.0078 (≈ 0.0213 µM) |  |  |  |  | 
2 | N[C@H]1CCN(c2c(F)cc3c(=O)c(C(=O)O)cn(C4CC4)c3c2Cl)C1 [Beispiel 1, 7-[S-(3-Amino)-1-pyrrolidinyl]-8-chlor-1-cyclopropyl-6-fluor-1,4-dihydro-4-oxo-3-chinolincarbonsäure-Hydrochlorid] |  | 0.03 | 0.0009 | 0.03 | ≤ 0.0004 | 0.0019 | 0.0078 | 0.25 | 0.0039 | 0.03 | 0.0019 | 0.03 | 0.0039 | ≤ 0.0004 | 0.0039 |  |  | 0.0078 | 0.0078 | 0.0078
3 | N[C@@H]1CCN(c2c(F)cc3c(=O)c(C(=O)O)cn(C4CC4)c3c2Cl)C1 [Beispiel 2, 7-[R-(3-Amino)-1-pyrrolidinyl]-8-chlor-1-cyclopropyl-6-fluor-1,4-dihydro-4-oxo-3-chinolincarbonsäure -Hydrochlorid] | 0.25 | 0.06 | 0.0039 | 0.06 | 0.0019 | 0.0078 | 0.15 | 0.25 | 0.0078 | 0.06 | 0.0039 | 0.03 | 0.0078 | 0.0019 | 0.0078 | 0.25 | 0.25 |  |  | 
4 | Cc1c(F)c(N2CC[C@H](N)C2)cc2c1c(=O)c(C(=O)O)cn2C1CC1 [Beispiel 5, 7-[S-(3-Amino)-1-pyrrolidinyl]-1-cyclopropyl-6-fluor-1,4-dihydro-5-methyl-4-oxo-3-chinolincarbonsäure-Hydrochlorid] | 2 | 0.5 |  | 0.25 |  |  |  | 4 |  | 0.25 |  |  |  |  |  | 2 | 4 |  |  | 
5 | Cc1c(F)c(N2CC[C@@H](N)C2)cc2c1c(=O)c(C(=O)O)cn2C1CC1 [Beispiel 6, 7-[R-(3-Amino)-1-pyrrolidinyl]-1-cyclopropyl-6-fluor-1,4-dihydro-5-methyl-4-oxo-3-chinolincarbonsäure-Hydrochlorid] | 4 | 2 |  | 1 |  |  | 0.5 | 8 |  | 2 |  | 1 |  |  |  | 8 | 8 |  |  | 

Now from value to molecule:

Row | MIC [1] [µg/mL] | MIC [2] [µg/mL] | MIC (E. coli A261) [µg/mL] | MIC [3] [µg/mL] | MIC (E. coli Neumann) [µg/mL] | MIC (Providencia stuartei) [µg/mL] | MIC (Proteus mir. 8175) [µg/mL] | MIC (Proteus mir. 8223) [µg/mL] | MIC (Klebsiella pneum. 63) [µg/mL] | MIC (Enteroc. faecalis 9790) [µg/mL] | MIC (Morg. morg. 932) [µg/mL] | MIC (Enteroc. faecalis 27101) [µg/mL] | MIC (Klebsiella pneum. 8085) [µg/mL] | MIC (Proteus vulg. 1017) [µg/mL] | MIC (Morg. morg. 11006) [µg/mL] | MIC (E. coli 455/7) [µg/mL] | MIC [4] [µg/mL] | MIC (Staph. aurens FK 422) [µg/mL] | MIC (Staph. aurens 133) [µg/mL] | MIC (Staph. aurens 1756) [µg/mL] | Structure (SMILES)
6 | 0.5 (≈ 1.43 µM) |  | 0.0039 (≈ 0.0112 µM) |  | 0.0039 (≈ 0.0112 µM) | 0.0078 (≈ 0.0223 µM) |  | 0.5 (≈ 1.43 µM) | 0.0078 (≈ 0.0223 µM) |  | 0.0039 (≈ 0.0112 µM) |  | 0.0078 (≈ 0.0223 µM) | 0.0039 (≈ 0.0112 µM) | 0.0078 (≈ 0.0223 µM) | 0.25 (≈ 0.716 µM) | 0.25 (≈ 0.716 µM) |  |  |  | NC1CCN(c2c(F)cc3c(=O)c(C(=O)O)cn(C4CC4)c3c2F)C1 (racemic) [**), 7-(3-Amino-1-pyrrolidinyl)-6,8-difluor-1-cyclopropyl-1,4-dihydro-4-oxo-chinolincarbonsäure, reference compound]
7 | 0.25 |  | 0.0039 | 0.62 | 0.0039 | 0.0078 |  | 0.25 | 0.0078 |  | 0.0039 |  | 0.0078 | 0.0039 | 0.0078 | 0.25 | 0.25 |  |  |  | N[C@H]1CCN(c2c(F)cc3c(=O)c(C(=O)O)cn(C4CC4)c3c2F)C1 [Beispiel 3, 7-[S-(3-Amino)-1-pyrrolidinyl]-1-cyclopropyl-6,8-difluor-1,4-dihydro-4-oxo-3-chinolincarbonsäure-Hydrochlorid]
8 | 1 | 0.25 | 0.0078 |  | 0.0078 | 0.0015 |  | 0.5 |  |  | 0.0078 |  |  | 0.0078 |  | 0.5 | 0.5 |  |  |  | N[C@@H]1CCN(c2c(F)cc3c(=O)c(C(=O)O)cn(C4CC4)c3c2F)C1 [Beispiel 4, 7-[R-(3-Amino)-1-pyrrolidinyl]-1-cyclopropyl-6,8-difluor-1,4-dihydro-4-oxo-3-chinolincarbonsäure-Hydrochlorid]
